What was measured:
[1] = tested on: HCV Replicon 1b; assay: HCV inhibition assay, HCV replicon 1b (Clone A or ET-lunet cells; RT-PCR or luciferase reporter); format: cell-based; conditions: Hepatitis C virus, 96 h, HCV replicon 1b; 4 days incubation; read-out: Replicon 1b potency EC90
Procedure, shortened: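 Inhibition read either as luciferase signal (ET replicon) or as HCV 5′-NTR RNA by RT-PCR relative to rRNA, % = (1−2^−ΔΔCt)×100, against DMSO controls, giving EC50 and EC90. Cells: Clone A or ET-lunet, seeded 1500 or 3000/well, exposed 4 days at 37 °C, 5% CO2, 0.5% DMSO.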

[2] = Cell cytotoxicity assay (MTS), CC90 as reported in Table 1, cell line not stated; format: cell-based; conditions: human; MTS assay; 8 days incubation; cell line not given
Procedure, shortened: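 MTS read-out (490 nm, 2 h dye step) after 8-day exposure at 37° C. Huh7, HepG2, BxPC3 were seeded at 2×10^3 and CEM at 5×10^3 cells/well, with compound serially diluted from 100 μM. CC90 comes from comparison with untreated control wells.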

CC(C)C[C@H]1C(=O)N[C@@H](C2CCCC2)CN1C(=O)[C@@H]1C[C@H]1c1ccc(F)cc1F [Compound 325, (3S,6S)-6-cyclopentyl-4-((1R,2R)-2-(2,4-difluorophenyl)cyclopropanecarbonyl)-3-isobutylpiperazin-2-one]
EC90 [1]: > 10 µM
CC90 at 8 days [2]: > 10 µM

CC(C)C[C@H]1C(=O)N[C@@H](C2CCCCC2)CN1C(=O)[C@@H]1C[C@H]1c1ccc(F)cc1F [Compound 326, (3S,6S)-6-cyclohexyl-4-((1R,2R)-2-(2,4-difluorophenyl)cyclopropanecarbonyl)-3-isobutylpiperazin-2-one]
EC90 [1]: > 10 µM
CC90 at 8 days [2]: > 10 µM

CC(C)C[C@H]1C(=O)N[C@@H](c2ccccc2)CN1C(=O)[C@@H]1C[C@H]1c1ccc(F)cc1F [Compound 327, (3S,6S)-4-[(1R,2R)-2-(2,4-difluoro-phenyl)-cyclopropanecarbonyl]-3-isobutyl-6-phenyl-piperazin-2-one]
EC90 [1]: 7.21 µM
CC90 at 8 days [2]: > 10 µM

CC(C)C[C@H]1C(=O)N[C@@H](C2CCCCC2)CN1C(=O)[C@@H]1C[C@H]1c1ccc(C(C)(C)C)cc1 [Compound 328, (3S,6S)-4-((1R,2R)-2-(4-(tert-butyl)phenyl)cyclopropanecarbonyl)-6-cyclohexyl-3-isobutylpiperazin-2-one]
EC90 [1]: 2.43 µM
CC90 at 8 days [2]: > 10 µM

CC(C)C[C@H]1CN(C(=O)[C@@H]2C[C@H]2c2ccc(Br)cc2)[C@@H](CC(C)C)C(=O)N1 [Compound 329, (3S,6S)-4-((1R,2R)-2-(4-bromophenyl)cyclopropanecarbonyl)-3,6-diisobutylpiperazin-2-one]
EC90 [1]: 0.52 µM
CC90 at 8 days [2]: > 10 µM

CCC[C@H]1CN(C(=O)[C@@H]2C[C@H]2c2ccc(Br)cc2)[C@@H](CC(C)C)C(=O)N1 [Compound 331, (3S,6S)-4-[(1R,2R)-2-(4-Bromo-phenyl)-cyclopropanecarbonyl]-3-isobutyl-6-propyl-piperazin-2-one]
EC90 [1]: 0.56 µM
CC90 at 8 days [2]: > 10 µM

CC(C)C[C@H]1C(=O)N[C@@H](c2ccccc2)CN1C(=O)[C@@H]1C[C@H]1c1ccc(Br)cc1 [Compound 333, (3S,6S)-4-[(1R,2R)-2-(4-bromo-phenyl)-cyclopropanecarbonyl]-3-isobutyl-6-phenyl-piperazin-2-one]
EC90 [1]: 0.646 µM
CC90 at 8 days [2]: > 10 µM

CCC[C@H]1CN(C(=O)[C@@H]2C[C@H]2c2ccc(C(C)(C)C)cc2)[C@@H](CC(C)C)C(=O)N1 [Compound 334, (3S,6S)-4-((1R,2R)-2-(4-(tert-butyl)phenyl)cyclopropanecarbonyl)-3-isobutyl-6-propyl-pylpiperazin-2-one]
EC90 [1]: 0.9 µM
CC90 at 8 days [2]: > 10 µM

O=C1N[C@@H](c2ccccc2)CN(C(=O)c2cc(-c3ccc(F)cc3)on2)[C@H]1CC1CC1 [Compound 336, (3S,6S)-3-(cyclopropylmethyl)-4-(5-(4-fluorophenyl)isoxazole-3-carbonyl)-6-phenylpiperazin-2-one]
EC90 [1]: 0.36 µM
CC90 at 8 days [2]: > 10 µM

O=C1N[C@@H](c2ccccc2)CN(C(=O)[C@@H]2C[C@H]2c2ccccc2)[C@H]1CC1CC1 [Compound 338, (3S,6S)-3-(cyclopropylmethyl)-6-phenyl-4-((1R,2R)-2-phenylcyclopropanecarbonyl)-piperazin-2-one]
EC90 [1]: 5.07 µM
CC90 at 8 days [2]: > 10 µM

CC[C@@H](C)[C@H]1C(=O)N[C@@H](c2ccccc2)CN1C(=O)c1cc(-c2ccc(F)cc2)on1 [Compound 339, (3S,6S)-3-((R)-sec-butyl)-4-(5-(4-fluorophenyl)isoxazole-3-carbonyl)-6-phenylpiperazin-2-one]
EC90 [1]: 0.8 µM
CC90 at 8 days [2]: > 10 µM

CC[C@@H](C)[C@H]1C(=O)N[C@@H](c2ccccc2)CN1C(=O)[C@@H]1C[C@H]1c1ccccc1 [Compound 341, (3S,6S)-3-((R)-sec-butyl)-6-phenyl-4-((1R,2R)-2-phenylcyclopropanecarbonyl)-piperazin-2-one]
EC90 [1]: 2.54 µM
CC90 at 8 days [2]: > 10 µM

CC(C)(C)C[C@H]1C(=O)N[C@@H](c2ccccc2)CN1C(=O)c1cc(-c2ccc(F)cc2)on1 [Compound 342, (3S,6S)-4-(5-(4-fluorophenyl)isoxazole-3-carbonyl)-3-neopentyl-6-phenylpiperazin-2-one]
EC90 [1]: 0.2 µM
CC90 at 8 days [2]: > 10 µM

CC(C)(C)C[C@H]1C(=O)N[C@@H](c2ccccc2)CN1C(=O)[C@@H]1C[C@H]1c1ccccc1 [Compound 344, (3S,6S)-3-neopentyl-6-phenyl-4-((1R,2R)-2-phenylcyclopropanecarbonyl)piperazin-2-one]
EC90 [1]: 1 µM
CC90 at 8 days [2]: > 10 µM

CC(C)C[C@H]1C(=O)N[C@@H](c2ccc(F)cc2)CN1C(=O)c1cc(-c2ccc(F)cc2)on1 [Compound 345, (3S,6S)-6-(4-fluorophenyl)-4-(5-(4-fluorophenyl)isoxazole-3-carbonyl)-3-isobutyl-piperazin-2-one]
EC90 [1]: 0.65 µM
CC90 at 8 days [2]: > 10 µM

CC(C)C[C@H]1C(=O)N[C@@H](c2ccc(F)cc2)CN1C(=O)[C@@H]1C[C@H]1c1ccccc1 [Compound 347, (3S,6S)-6-(4-fluorophenyl)-3-isobutyl-4-((1R,2R)-2-phenylcyclopropanecarbonyl)-piperazin-2-one]
EC90 [1]: 2.05 µM
CC90 at 8 days [2]: > 10 µM

Cc1ccc([C@H]2CN(C(=O)c3cc(-c4ccc(F)cc4)on3)[C@@H](CC(C)C)C(=O)N2)cc1 [Compound 348, (3S,6S)-4-(5-(4-fluorophenyl)isoxazole-3-carbonyl)-3-isobutyl-6-(p-tolyl)piperazin-2-one]
EC90 [1]: 1.8 µM
CC90 at 8 days [2]: > 10 µM

CC(C)C[C@H]1CN(C(=O)c2cn(-c3ccc(Cl)cc3)nn2)[C@@H](CC(C)C)C(=O)N1 [Compound 350, (3S,6S)-4-(1-(4-chlorophenyl)-1H-1,2,3-triazole-4-carbonyl)-3,6-diisobutylpiperazin-2-one]
EC90 [1]: 1.96 µM
CC90 at 8 days [2]: > 10 µM

CC(C)C[C@H]1CN(C(=O)c2cn(-c3ccc(F)cc3)nn2)[C@@H](CC(C)C)C(=O)N1 [Compound 351, (3S,6S)-4-(1-(4-fluorophenyl)-1H-1,2,3-triazole-4-carbonyl)-3,6-diisobutylpiperazin-2-one]
EC90 [1]: 1.63 µM
CC90 at 8 days [2]: > 10 µM

CC(C)C[C@H]1C(=O)N[C@@H](c2ccccc2Cl)CN1C(=O)c1cc(-c2ccc(F)cc2)on1 [Compound 352, (3S,6S)-6-(2-chlorophenyl)-4-(5-(4-fluorophenyl)isoxazole-3-carbonyl)-3-isobutyl-piperazin-2-one]
EC90 [1]: 0.21 µM
CC90 at 8 days [2]: > 10 µM

CC(C)C[C@H]1C(=O)N[C@@H](c2ccccc2Cl)CN1C(=O)[C@@H]1C[C@H]1c1ccccc1 [Compound 354, (3S,6S)-6-(2-chlorophenyl)-3-isobutyl-4-((1R,2R)-2-phenylcyclopropanecarbonyl)-piperazin-2-one]
EC90 [1]: 1.85 µM
CC90 at 8 days [2]: > 10 µM

CC(C)C[C@H]1C(=O)N[C@@H](c2ccccc2F)CN1C(=O)[C@@H]1C[C@H]1c1ccccc1 [Compound 357, (3S,6S)-6-(2-fluorophenyl)-3-isobutyl-4-((1R,2R)-2-phenylcyclopropanecarbonyl)-piperazin-2-one]
EC90 [1]: 0.52 µM
CC90 at 8 days [2]: > 10 µM

CC(C)C[C@H]1C(=O)N[C@@H](c2ccc(Cl)cc2)CN1C(=O)c1cc(-c2ccc(F)cc2)on1 [Compound 358, (3S,6S)-6-(4-chlorophenyl)-4-(5-(4-fluorophenyl)isoxazole-3-carbonyl)-3-isobutyl-piperazin-2-one]
EC90 [1]: 1.53 µM
CC90 at 8 days [2]: > 10 µM
